What is called Ki is a measure of affinity in units of concentration, obtained from inhibition or displacement. By IC50 is commonly meant the concentration that inhibits the measured activity by half.

One compound from paper PMC3971408, “Inhibition of triosephosphate isomerase by phosphoenolpyruvate in the feedback-regulation of glycolysis” (Open Biology, 2014) can be followed below.

The target of test [1] is T1, human triosephosphate isomerase (TPI) (Homo sapiens, UniProt P60174).
T1 construct: gene TPI1; 6x-histidine tagged wild-type human TPI
Briefly: enzyme-coupled activity assay with PEP titration (IC50 […]); thermal shift ΔTm […]°C. The test is classed as biochemical.

The next test concerns the target T2, human TPIIle170Val (Homo sapiens, UniProt P60174, I171V).
T2 construct: gene TPI1; 6x-histidine tagged human TPI
The test is described as follows: enzyme-coupled activity assay with PEP titration; thermal shift ΔTm […]°C. The test is classed as biochemical.

Test [2] deals with T3, triosephosphate isomerase (TPI) (Oryctolagus cuniculus, UniProt P00939).
T3 construct: gene TPI1; Native rabbit muscle TPI (Sigma); homodimer, 246 of 250 amino acids modelled
The test is described as follows: co-crystal structure at […] Å. The format is binding.

For a further test, the target named is T4, human TPIIle170Thr (Homo sapiens, UniProt P60174, I171T).
T4 construct: gene TPI1; 6x-histidine tagged human TPI
Briefly: enzyme-coupled activity assay with PEP titration; thermal shift ΔTm […]°C. The test is classed as biochemical.

T3 sequence (P00939 2-249): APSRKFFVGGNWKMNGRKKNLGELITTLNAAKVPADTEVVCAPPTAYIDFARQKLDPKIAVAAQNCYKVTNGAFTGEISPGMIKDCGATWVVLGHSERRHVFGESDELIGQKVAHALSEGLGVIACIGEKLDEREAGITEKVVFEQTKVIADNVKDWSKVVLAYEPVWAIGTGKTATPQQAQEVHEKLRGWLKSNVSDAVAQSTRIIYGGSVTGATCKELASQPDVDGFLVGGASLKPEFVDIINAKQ
T2 sequence (P60174 2-249 I171V): as the sequence (P00939 2-249) above, with K19Q, N20S, T26G, S118A, I170V counted along it
T4 sequence (P60174 2-249 I171T): as the sequence (P00939 2-249) above, with K19Q, N20S, T26G, S118A, I170T counted along it
T1 sequence (P60174 2-249): as the sequence (P00939 2-249) above, with K19Q, N20S, T26G, S118A counted along it

Consider `C=C(OP(=O)(O)O)C(=O)O` [PEP, phosphoenolpyruvate], for which the Ki in test [1] turned out to be 230 µM. Besides, the IC50 at human TPIIle170Val amounted to 1930 µM; on human TPIIle170Thr, 1540 µM. Also, the “co-crystal structure at 1.55 Å” value in test [2] is “The electron density map gave a clearly defined and unambiguous shape for PEP bound to the active sites”.
